Where a name gives a salt, the structure may show the parent alone.

One series deals with arrhythmias. The series is described as follows: Antiarrhythmic action, aconitine infusion, rat, oral administration. The conditions noted are these: for ED50: Rattus norvegicus, po, read-out: ED 50% (dose which prolongs the aconitine infusion duration by 50%). It counts as in vivo, Sprague-Dawley rats. The method, then: (§1) The substances were administered orally to Sprague-Dawley rats weighing 200-250 g. 45 minutes thereafter, the animals were anesthetized with 100 mg/kg of thiobutabarbital Na, administered intraperitoneally. Aconitine, as an arrhythmogenic substance, was infused intravenously into the jugular vein 60 minutes after administration of the substance (dosage rate: 0.005 mg per kg per min). In the case of untreated animals (N=52), arrhythmias appeared in the ECG after 2.74±0.07 minutes, the appearance of these arrhythmias being delayed by antiarrhythmic agents in a dose-dependent manner.
(§2) The dose which prolongs the duration of aconitine infusion by 50%, ie. the ED 50%, was determined from the linear relationship between log dose (mg/kg) of the test substances and the relative prolongation of aconitine infusion duration (Δ%).

Series [1] in a line: Acute toxicity: dose at which first toxic symptoms (change in initial ECG, cyanosis or cramp) occur, rat, oral. It counts as in vivo, Sprague-Dawley rats. The conditions noted are these: Table 2, oral administration, geometric progression of doses (factor 2.154). The method, then: as §1
(§3) Furthermore, the dose at which toxic symptoms (change in the initial ECG, cyanosis or cramp) occur was determined from the geometric progression of doses (factor 2.154) used in the experiments.

Series [2] in a line: Therapeutic index: quotient of acute toxic dose to antiarrhythmic ED 50%. Also on record: species or system Sprague-Dawley rats. The conditions noted are these: in vivo; Table 2; rat, oral administration; measure of therapeutic index; read-out: Q (quotient of acute toxic dose to antiarrhythmic ED 50%). The method, then: as §1, §2, §3
The quotient of acute toxic dose to antiarrhythmic ED 50% was determined as a measure of the therapeutic index of the novel compounds.

As to `CC(C)NCC(C)(O)CC1c2ccccc2CCc2ccccc21` (stereo not shown) [Example 1, N-[2-hydroxy-2-methyl-3-(10,11-dihydro-5H-dibenzocycloheptadienyl)-propyl]-N-isopropylamine hydrochloride], the ED50 with arrhythmias stood at 6.51 mg/kg.

With `CNCC(C)(O)CC1c2ccccc2CCc2ccccc21` (stereo not shown) [Example 3], the ED50 with arrhythmias is 3.11 mg/kg. Besides, the “Toxic dose (dose at which the first toxic symptoms are observed)” value (shortened to “Toxic dose”) in series [1] worked out at 100 mg/kg. In addition, the selectivity ratio in series [2] is 32.

Regarding `CC(O)(CNC(C)(C)C)CC1c2ccccc2CCc2ccccc21` (stereo not shown) [Example 4], in the series on arrhythmias, the ED50 stood at 6.47 mg/kg. In series [1], the “Toxic dose” value came out at 215 mg/kg. Besides, in series [2], the selectivity ratio came to 33.

`CCCNCC(C)(O)CC1c2ccccc2CCc2ccccc21` (stereo not shown) [Example 5]: the ED50 with arrhythmias was 7.78 mg/kg.

For `COCC(C)NCC(C)(O)CC1c2ccccc2CCc2ccccc21` (stereo not shown) [Example 6], the ED50 in the series with arrhythmias was determined as 6.83 mg/kg.

Take `CC(O)(CC1c2ccccc2CCc2ccccc21)CN1CCC(O)(c2ccccc2)CC1` (stereo not shown) [Example 9]: the ED50 with arrhythmias came out at 2.57 mg/kg.

Consider `C=C[C@H]1C[N@@]2CC[C@H]1C[C@@H]2[C@@H](O)c1ccnc2ccc(OC)cc12` [Quinidine, quinidine, reference compound], for which, in the series with arrhythmias (Table 2, rat, oral administration, 60 minutes before aconitine i.v. infusion 0.005 mg per kg per min), the “ED 50% (dose which prolongs the aconitine infusion duration by 50%)” value worked out at 43.5 mg/kg. For the same compound, the “Toxic dose” value in series [1] turned out to be 464 mg/kg. The selectivity ratio in series [2] is 11.

The record behind these values is patent publication US4670435A, “10,11-dihydro-5H-dibenzo[a,d]cycloheptadiene derivatives in a method for treating cardiac arrhythmia” (priority 1984, dated 1987).
